# Ends that are not written are not given here.
# Key:
# [1] = tested on: PKC purified from rat brain; experiment: IQ Platform PKC/PS inhibitor study (fluorescence quench kinase assay); assay type: biochemical; details: Hill slope of the dose response inhibition curve
# Procedure: IQ™ Working Solution was prepared by mixing 9 volumes of IQ™ Reagent A and 1 volume of IQ™ Reagent B prior to use to provide full strength IQ™ WS (1×IQ™ WS). The full-strength working solution was further diluted with water to prepare half-strength or quarter-strength IQ™ working solution. In 96 well assays, 4× reaction volume of quarter-strength was added and in 384 and 1536 well assays, 2× reaction volume of half-strength was added.
# Enzymatic assays were conducted at room temperature for 1 hour unless otherwise indicated. Reactions were carried out in microwell plates and initiated by addition of ATP or enzyme. Kinase experiments used PKC purified from rat brain. PKC assays were conducted in a final enzyme reaction mixture consisting of 20 mM HEPES, 1 mM CaCl2, 5 mM MgCl2, 1 mM disodium ATP, 1 mM DTT, 0.2 mg/ml phosphatidyl-L-serine, pH 7.4. […] The amounts of enzyme utilized reflect a common unit definition where 1 mU of enzyme is the amount of enzyme required to transfer 1 pmole phosphate per minute at 30° C.
# Peptides were labeled on the N-terminus with a proprietary red fluorescent label. Fluorescence was measured using either a BMG PolarStar™ or BMG Optima™ fluorescent plates readers with a 560/590 excitation/emission filter set for the red-fluorophore label.
# Inhibitor studies using the IQ Platform with PKC/PS: IC50 values for known PKC inhibitors were determined using fluorophore-labeled pseudosubstrate peptide as the substrate. Inhibitor studies were carried out in triplicate using 500 μU PKC per μl of final enzyme reaction mixture and 60 μM peptide substrate. Inhibitors, diluted in either aqueous solution for water-soluble inhibitors or in 10% DMSO for water-insoluble inhibitors, were incubated with the enzyme for 20 minutes at room temperature, after which the enzymatic reaction was initiated by addition of ATP at a final concentration of 20 μM. The enzymatic reaction was carried out for 1 hour at room temperature followed by addition of 36 μl of 0.5×IQ WS per well. Fluorescence was then measured and data were analyzed using sigmoidal nonlinear regression.
# PKC = details: literature value, Kuo, J. F. (1994); read-out: Previously Reported IC50; cited from earlier work
Molecule,Calculated Hillslope Best Fit [1],IC50 (PKC) [nM]
CN(C)CCCn1cc(C2=C(c3c[nH]c4ccccc34)C(=O)NC2=O)c2ccccc21 [Bisindolylmaleimide I],1.160,10
CN[C@@H]1C[C@H]2O[C@@](C)([C@@H]1OC)n1c3ccccc3c3c4c(c5c6ccccc6n2c5c31)C(=O)NC4 [Staurosporine],1.225,[…]
Calphostin C,1.675,50
"Myristoylated Protein Kinase C Inhibitor 20-28, Cell-Permeable: known PKC inhibitor peptide; competitive, peptide binding site (FARKGALRQ; also: myristoylated (place not given here); UniProt P17252 20-28, looked up, fragment)",0.9018,8000
"Pseudosubstrate PKC Inhibitor Peptide 19-31: known PKC inhibitor peptide; competitive, peptide binding site (RFARKGALRQKNV; UniProt P17252 19-31, looked up, fragment)",0.8462,100
"Pseudosubstrate PKC Inhibitor Peptide 19-36: known PKC inhibitor peptide; competitive, peptide binding site (RFARKGALRQKNVHEVKD; UniProt P17252 19-36, looked up, fragment)",1.265,147

# — patent US20050032121A1, “Method of analyzing data obtained from a biological assay” (Pierce Biotechnology, Inc., priority 2003, published 2005)
